Experimental data taken from patent publication US8461329B2, “Isoquinoline derivative” (Taisho Pharmaceutical Co., Ltd., priority 2008, dated 2013).
Where a name gives a salt, the structure may show the parent alone.

These compounds were tested against T1, CRTH2 (KB8 cells) (Homo sapiens, UniProt Q9Y5Y4) (assay: CRTH2 antagonist test (PGD2-induced intracellular calcium ion concentration increase in KB8 cells)). Settings: PGD2 100 nM, Fluo-4 calcium fluorescence, read-out: CRTH2 antagonist activity IC50 value.
T1 construct: host or cells: KB8 cells (human CRTH2 expression cell)
T1 sequence (Q9Y5Y4 1-395): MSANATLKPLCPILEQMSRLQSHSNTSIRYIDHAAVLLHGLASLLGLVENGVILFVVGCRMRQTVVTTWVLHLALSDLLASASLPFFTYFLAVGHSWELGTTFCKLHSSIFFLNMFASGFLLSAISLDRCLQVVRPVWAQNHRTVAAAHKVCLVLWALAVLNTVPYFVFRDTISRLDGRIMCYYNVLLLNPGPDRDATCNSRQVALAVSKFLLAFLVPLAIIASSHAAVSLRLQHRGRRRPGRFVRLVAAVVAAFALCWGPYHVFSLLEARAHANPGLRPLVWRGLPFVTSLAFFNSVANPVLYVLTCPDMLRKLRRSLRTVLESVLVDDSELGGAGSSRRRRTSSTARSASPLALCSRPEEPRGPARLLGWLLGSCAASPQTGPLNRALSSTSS
Assay type: cell-based
Description: The antagonist activity of the compound of the present invention was considered by using the intracellular calcium ion concentration increase reaction induced when the prostaglandin D2 was added to KB8 cells.
Fluo-4-AM (4-(6-acetoxymethoxy-2,7-difluoro-3-oxo-9-xanthenyl)-4′-methyl-2,2′-(ethylenedioxy)dianilide-N,N,N′,N′-tetraacetic acid tetrakis(acetoxymethyl) ester (SIGMA, final concentration: 1 μM) was added to KB8 cells, and the cells were incubated at 37° C. for 30 min, washed with phosphate buffer (Invitrogen), and then suspended in Hank's balanced salt solution (Invitrogen)) containing a reaction buffer solution (10 mM HEPES (Invitrogen), and 1 mM calcium chloride (SIGMA). The suspension was dispensed in a 96 well plate (Nunc) so that 2×10^5 cells/well were placed, and the compound of the present invention and PGD2 (final concentration: 100 nM) were added. The fluorescence intensity thereof was measured over time by using FDSS6000 (Hamamatsu Photonics), and thus the maximum fluorescence intensity value “d” was obtained. The same procedure was carried out in the absence of the compound, and the maximum fluorescence intensity value “e” was obtained; and the same procedure was carried out in the absence of the compound and […], and the maximum fluorescence intensity value “f” was obtained.
The calcium ion concentration increase inhibition rate of a compound was calculated by the following calculation formula: Inhibitory rate(%)=[1−(d−f)/(e−f)]×100
That is to say, by using calcium ion concentration increase inhibitory rates of compounds to be tested having various concentrations, the IC50 value was calculated according to a dose-dependent inhibition curve analyzed by using XLfit (IDBS) as a data analysis software, and the value was defined as an indicator of the antagonist activity. In Tables, A denotes an inhibitory activity showing the IC50 value of less than 50 nM; B denotes an inhibitory activity showing the IC50 value of 50 nM or greater and less than 500 nM; C denotes an inhibitory activity showing the IC50 value of 500 nM or greater and less than 1000 nM; and D denotes an inhibitory activity showing the IC50 value of 1000 nM or greater.

IC50 | SMILES
2.3 nM | O=C(O)Cc1cnc(C(=O)c2ccc(NC(=O)c3cc4cc(F)ccc4[nH]3)cc2)c2ccccc12 [Example 122]
5.9 nM | O=C(O)Cc1cnc(Cc2ccc(C(=O)NCCc3cc4cc(Cl)ccc4[nH]3)cc2)c2ccccc12 [Example 234]
6.6 nM | O=C(O)Cc1cnc(Cc2ccc(C(=O)NCCC34CC5CC(CC(C5)C3)C4)cc2)c2ccccc12 [Example 240]

Same assay, conditions: PGD2 final concentration 100 nM, Fluo-4-AM fluorescence, read-out: antagonist activity (IC50 value, inhibition of calcium ion concentration increase)

IC50 | SMILES
≥ 1000 nM | CNC(=O)c1ccc(Cc2ncc(CC(=O)O)c3ccccc23)cc1 [Example 220]
< 50 nM | CC(C)(C)c1ccc(CCNC(=O)c2ccc(Cc3ncc(CC(=O)O)c4ccccc34)cc2)cc1 [Example 193]
< 50 nM | O=C(O)Cc1cnc(Cc2ccc(C(=O)NCCc3ccc(Cl)cc3)cc2)c2ccc(F)cc12 [Example 253, [1-(4-{[2-(4-chlorophenyl)ethyl]carbamoyl}benzyl)-6-fluoroisoquinoline-4-yl]acetic acid]
50 to 500 nM | COc1ccc2c(C(=O)c3ccc(C(=O)NCCc4ccc(Cl)cc4)cc3)ncc(CC(=O)O)c2c1 [Example 260, {1-[(4-{[2-(4-chlorophenyl)ethyl]carbamoyl}phenyl)carbonyl]-6-methoxyisoquinolin-4-yl}acetic acid]
≥ 1000 nM | O=C(O)Cc1cnc(Cc2ccc(C(=O)NCCC3CCOCC3)cc2)c2ccccc12 [Example 214]
≥ 1000 nM | O=C(O)Cc1cnc(Cc2ccc(C(=O)NCCc3cn4ccccc4n3)cc2)c2ccccc12 [Example 227]
50 to 500 nM | O=C(O)Cc1cnc(Cc2ccc(C(=O)NCCc3cc(Cl)cc(Cl)c3)cc2)c2ccccc12 [Example 219]
50 to 500 nM | O=C(O)Cc1cnc(Cc2ccc(C(=O)NCCC3=CCCCC3)cc2)c2ccccc12 [Example 188]
< 50 nM | O=C(O)Cc1cnc(Cc2ccc(C(=O)NCCc3cc4cc(Cl)ccc4[nH]3)cc2)c2ccccc12 [Example 234]
50 to 500 nM | COc1ccccc1CCNC(=O)c1ccc(Cc2ncc(CC(=O)O)c3ccccc23)cc1 [Example 184]
50 to 500 nM | CC(C)(CNC(=O)c1ccc(Cc2ncc(CC(=O)O)c3ccccc23)cc1)c1ccc(Cl)cc1 [Example 251]
≥ 1000 nM | O=C(O)Cc1cnc(Cc2ccc(C(=O)NCCN3CCOCC3)cc2)c2ccccc12 [Example 185]
50 to 500 nM | O=C(O)Cc1cnc(Cc2ccc(C(=O)NCCc3ccc(F)cc3)cc2)c2ccccc12 [Example 200]
< 50 nM | Cc1cc(CCNC(=O)c2ccc(Cc3ncc(CC(=O)O)c4ccccc34)cc2)ccc1Cl [Example 245]
< 50 nM | Cc1ccc2sc(CCNC(=O)c3ccc(Cc4ncc(CC(=O)O)c5ccccc45)cc3)cc2c1 [Example 242]
< 50 nM | O=C(O)Cc1cnc(Cc2ccc(C(=O)NCCC34CC5CC(CC(C5)C3)C4)cc2)c2ccccc12 [Example 240]
< 50 nM | CCCCCCc1ccc(CCNC(=O)c2ccc(Cc3ncc(CC(=O)O)c4ccccc34)cc2)cc1 [Example 238]
< 50 nM | O=C(O)Cc1cnc(Cc2ccc(C(=O)NCCc3ccc(Br)cc3)cc2)c2ccccc12 [Example 199]
≥ 1000 nM | CS(=O)(=O)c1ccc(CCNC(=O)c2ccc(Cc3ncc(CC(=O)O)c4ccccc34)cc2)cc1 [Example 207]
≥ 1000 nM | O=C(O)Cc1cnc(Cc2ccccc2OCc2ccc(Cl)cc2)c2ccccc12 [Example 252, (1-{2-[(4-chlorobenzyl)oxy]benzyl}isoquinolin-4-yl)acetic acid]
≥ 1000 nM | CC(C)(C(=O)O)c1cnc(C(=O)c2ccc(C(=O)NCCc3ccc(Cl)cc3)cc2)c2ccccc12 [Example 255, 2-{1-[(4-{[2-(4-chlorophenyl)ethyl]carbamoyl}phenyl)carbonyl]isoquinolin-4-yl}-2-methylpropanoic acid]

The remaining lines, values behind:

SMILES | IC50
O=C(O)Cc1cnc(C(=O)c2ccc(NC(=O)c3cc(Cl)ccc3Cl)cc2)c2ccccc12 [Example 43] | 50 to 500 nM
Cc1cccc(CCNC(=O)c2ccc(Cc3ncc(CC(=O)O)c4ccccc34)cc2)c1 [Example 166] | < 50 nM
O=C(O)Cc1cnc(C(=O)c2ccc(NC(=O)c3ccc4c(c3)CCCC4)cc2)c2ccccc12 [Example 54] | < 50 nM
O=C(O)Cc1cnc(Cc2ccc(OCCCc3ccc(Cl)cc3)cc2)c2ccccc12 [Example 150] | 50 to 500 nM
O=C(O)Cc1cnc(C(=O)c2ccc(NC(=O)c3cc(Cl)cc(Cl)c3)cc2)c2ccccc12 [Example 37] | < 50 nM
O=C(O)Cc1cnc(Cc2ccc(C(=O)NCCc3ccncc3)cc2)c2ccccc12 [Example 177] | ≥ 1000 nM
O=C(O)Cc1cnc(C(=O)c2ccc(NC(=O)c3cccnn3)cc2)c2ccccc12 [Example 98] | ≥ 1000 nM
O=C(O)Cc1cnc(C(=O)c2ccc(NC(=O)c3c[nH]cn3)cc2)c2ccccc12 [Example 97] | ≥ 1000 nM
O=C(O)Cc1cnc(C(=O)c2ccc(NC(=O)c3cc4cc(F)ccc4[nH]3)cc2)c2ccccc12 [Example 122] | < 50 nM
CS(=O)(=O)c1ccc(C(=O)Nc2ccc(C(=O)c3ncc(CC(=O)O)c4ccccc34)cc2)cc1 [Example 74] | 50 to 500 nM
NS(=O)(=O)c1ccc(C(=O)Nc2ccc(C(=O)c3ncc(CC(=O)O)c4ccccc34)cc2)cc1 [Example 109] | 50 to 500 nM
Cc1ccc(C(=O)Nc2ccc(C(=O)c3ncc(CC(=O)O)c4ccccc34)cc2)cc1C [Example 101] | < 50 nM
O=C(O)Cc1cnc(C(=O)c2ccc(NC(=O)c3ncccn3)cc2)c2ccccc12 [Example 55] | 500 to 1000 nM
O=C(O)Cc1cnc(C(=O)c2ccc(NC(=O)c3cc4c([nH]3)CCCC4)cc2)c2ccccc12 [Example 94] | < 50 nM
Cn1c(C(=O)Nc2ccc(C(=O)c3ncc(CC(=O)O)c4ccccc34)cc2)cc2ccccc21 [Example 123] | < 50 nM
COc1ccc(C(=O)Nc2ccc(C(=O)c3ncc(CC(=O)O)c4ccccc34)cc2)cc1Cl [Example 108] | < 50 nM
O=C(O)Cc1cnc(C(=O)c2ccc(NC(=O)c3ccc4nccnc4c3)cc2)c2ccccc12 [Example 117] | 500 to 1000 nM

SMILES | IC50
COc1ccc(CCNC(=O)c2ccc(Cc3ncc(CC(=O)O)c4ccccc34)cc2)cc1Cl [Example 157] | < 50 nM
Cc1ccc2sc(C(=O)Nc3ccc(C(=O)c4ncc(CC(=O)O)c5ccccc45)cc3)cc2c1 [Example 102] | < 50 nM
O=C(O)Cc1cnc(C(=O)c2ccc(NC(=O)C3(c4ccc(Cl)cc4)CCCC3)cc2)c2ccccc12 [Example 59] | 50 to 500 nM
CC(C)(C)c1ccc(C(=O)Nc2ccc(C(=O)c3ncc(CC(=O)O)c4ccccc34)cc2)cc1 [Example 111] | < 50 nM
O=C(O)Cc1cnc(C(=O)c2ccc(NC(=O)c3cc(Cl)cc(Cl)c3Cl)cc2)c2ccccc12 [Example 45] | 50 to 500 nM
Cc1cc(C)cc(C(=O)Nc2ccc(C(=O)c3ncc(CC(=O)O)c4ccccc34)cc2)c1 [Example 103] | < 50 nM
O=C(O)Cc1cnc(Cc2ccc(C(=O)NCCc3ccccn3)cc2)c2ccccc12 [Example 175] | ≥ 1000 nM
O=C(O)Cc1cnc(C(=O)c2ccc(NC(=O)c3c(Cl)cc(Cl)cc3Cl)cc2)c2ccccc12 [Example 48] | ≥ 1000 nM
O=C(O)Cc1cnc(Cc2ccc(C(=O)NCCCc3ccc(Cl)cc3)cc2)c2ccccc12 [Example 164] | < 50 nM
O=C(O)Cc1cnc(C(=O)c2ccc(COCCc3ccc(Cl)cc3)cc2)c2ccccc12 [Example 146, {1-[(4-{[2-(4-chlorophenyl)ethoxy]methyl}phenyl)carbonyl]isoquinolin-4-yl}acetic acid] | 50 to 500 nM
O=C(O)Cc1cnc(C(=O)c2ccc(NC(=O)c3cccc(Cl)c3F)cc2)c2ccccc12 [Example 70] | 50 to 500 nM
O=C(O)Cc1cnc(Cc2ccc(S(=O)(=O)NCCc3ccc(Cl)cc3)cc2)c2ccccc12 [Example 152, [1-(4-{[2-(4-chlorophenyl)ethyl]sulfamoyl}benzyl)isoquinolin-4-yl]acetic acid] | 50 to 500 nM
O=C(O)Cc1cnc(C(=O)c2ccc(NC(=O)c3cccnc3)cc2)c2ccccc12 [Example 66] | ≥ 1000 nM
O=C(O)Cc1cnc(C(=O)c2ccc(CNCc3ccc(Cl)cc3)cc2)c2ccccc12 [Example 147, {1-[(4-{[(4-chlorobenzyl)amino]methyl}phenyl)carbonyl]isoquinolin-4-yl}acetic acid hydrochloride] | ≥ 1000 nM
O=C(O)Cc1cnc(C(=O)c2ccc(NC(=O)Cc3c[nH]c4ccccc34)cc2)c2ccccc12 [Example 126] | < 50 nM
COc1cc(C(=O)Nc2ccc(C(=O)c3ncc(CC(=O)O)c4ccccc34)cc2)cc(OC)c1OC [Example 63] | 50 to 500 nM
